In data set [1] the test system is U87-MG cells. Put plainly: CCK-8 cell viability / cytotoxicity assay in U87-MG cells. The class given is cell-based, human. The settings on record: incubation with U87-MG cells for 24 h.
The format of data set [2] is in vivo, BALB/c nude mice. Conditions: orthotopic glioma nude mice; 2.5 mg/kg Dox equivalent every three days; n = 5.

This note sets out measurements from paper PMC11762577 (Materials Today Bio, 2025).

Structures are written as SMILES.

For the compound `COc1cccc2c1C(=O)c1c(O)c3c(c(O)c1C2=O)C[C@@](O)(C(=O)CO)C[C@@H]3O[C@H]1C[C@H](N)[C@H](O)[C@H](C)O1` [Dox, doxorubicin], the “IC50 (equivalent Dox concentration), U87-MG cell viability” value in data set [1] turned out to be 3.49 µg/mL. Besides, the “body weight of tumor-bearing mice” value in data set [2] is given as “decreased on day 12”.
